PMC9405216, “Antimicrobial and Cytotoxic Cyathane-Xylosides from Cultures of the Basidiomycete Dentipellis fragilis” (Antibiotics, 2022)
≈ marks a conversion by molar mass, not a printed value. Read-outs that look alike come from different tables or passages of the source. Marks after values point to notes of the source that are not given here.

Experiments:
Type in all cases: cell-based
[1] = tested on: Mucor hiemalis (DSM 2656); assay: Serial dilution MIC assay, Mucor hiemalis; details: overnight incubation, n.i. = no inhibition
Protocol: (§1) Serial dilution assays in 96-well microtiter plates were performed according to our standard protocol in order to determine the minimum inhibitory concentrations (MICs) of pure isolated compounds against different microorganisms. Essentially, aliquots of compounds 1–5 and 9 (20 µL), each with an initial concentration of 1 mg/mL, were diluted in MeOH together with the respective microorganisms to concentrations ranging between 67 µg/mL and 0.5 µg/mL in the 96-well plates, followed by overnight incubation. The MIC was then determined as the lowest concentration at which no growth of the test organism was observed. A broad spectrum of clinically approved test pathogens and sensitivity indicator strains were used in the assays (Table 4 and Table 5). Ciprofloxacin, oxytetracycline, kanamycin, and gentamycin were used as positive controls against bacterial pathogens, while nystatin was used as the positive control against fungi.

[2] = tested on: Schizosaccharomyces pombe (DSM 70572); assay: Serial dilution MIC assay, Schizosaccharomyces pombe; details: overnight incubation, n.i. = no inhibition
Protocol: as §1

[3] = tested on: Pichia anomala (DSM 6766); assay: Serial dilution MIC assay, Pichia anomala; details: overnight incubation, n.i. = no inhibition
Protocol: as §1

[4] = tested on: Candida albicans (DSM 1665); assay: Serial dilution MIC assay, Candida albicans; details: serial dilution 67-0.5 µg/mL, overnight incubation, n.i. = no inhibition
Protocol: as §1

[5] = tested on: Rhodotorula glutinis (DSM 10134); assay: Serial dilution MIC assay, Rhodotorula glutinis; details: overnight incubation, n.i. = no inhibition
Protocol: as §1

[6] = tested on: Pseudomonas aeruginosa (DSM PA14); assay: Serial dilution MIC assay, Pseudomonas aeruginosa; details: serial dilution 67-0.5 µg/mL, overnight incubation, n.i. = no inhibition
Protocol: as §1

[7] = tested on: L929 (ACC2) mouse fibroblasts; assay: MTT cytotoxicity test, L929; details: five days incubation, n.c. = no cytotoxicity
Source text: (§2) A panel of mammalian cell lines was used to determine the cytotoxicity of the compounds following a previously published protocol. The assay was initially performed using the sensitive cell lines KB3.1 (human endocervical adenocarcinoma) and L929 (mouse fibroblasts). Active compounds were further tested using the cell lines MCF-7 (human breast adenocarcinoma), PC-3 (human prostate adenocarcinoma), SKOV-3 (ovarian carcinoma), A549 (human lung carcinoma), and A431 (human squamous cell carcinomas) (Table 6). The cell lines A549, KB 3.1, and L929 were cultured in DMEM (Gibco, provided by Thermo Fisher Scientific), PC-3 in F12-K (Gibco) and MC-7, and SKOV-3 and A431 in RPMI (Gibco). With the exception of A549, all cell lines were supplemented with 10% bovine serum (Gibco). All cell lines were cultured at 37 °C. The L929 and KB 3.1 cell lines were cultivated under an atmosphere of 10% (v/v) carbon dioxide. Cytotoxicity tests were then carried out using MTT (3-(4,5-dimethylthiazol-2-yl)-2,5-diphenyltetrazolium bromide) in 96-well microtiter plates. Serial dilutions of the compounds (60 µL aliquots, each with an initial concentration of 1 mg/mL) were added into 120 µL aliquots of cell suspension (50000 cells/mL) in the 96-well plates. These were incubated for five days, after which an MTT assay was performed. The absorbance was taken at 590 nm using an Elisa plate reader (Victor, Überlingen, Germany). The half-maximal inhibitory concentration (IC50), the concentration at which cell growth inhibition was 50% of the control, was calculated as described elsewhere.

[8] = tested on: MCF-7 (A115) human breast adenocarcinoma; assay: MTT cytotoxicity test, MCF-7; details: MCF-7 human breast adenocarcinoma, five days incubation
Source text: as §2

[9] = tested on: other cell lines (MCF-7, A549, PC-3, SKOV-3, A431); assay: MTT cytotoxicity test, other cell lines of the panel; details: range over the cell lines other than L929 and KB3.1 (Table 6)
Source text: as §2, with “These were incubated for five days, after which an MTT assay was performed.” left out, “The half-maximal inhibitory concentration (IC50), the concentration at which cell growth inhibition was 50% of the control, was calculated as described elsewhere.” left out

[10] = tested on: A431 (ACC91) human squamous cell carcinomas; assay: MTT cytotoxicity test, A431; details: five days incubation
Source text: as §2

[11] = tested on: A549 (ACC107) human lung carcinoma; assay: MTT cytotoxicity test, A549; details: five days incubation
Source text: as §2

[12] = tested on: Chromobacterium violaceum (DSM 30191); assay: Serial dilution MIC assay, Chromobacterium violaceum; details: serial dilution 67-0.5 µg/mL, overnight incubation, n.i. = no inhibition
Protocol: as §1

[13] = tested on: SKOV-3 (ovarian carcinoma); assay: MTT cytotoxicity test, SKOV-3; details: five days incubation
Source text: as §2

[14] = tested on: Bacillus subtilis (DSM 10); assay: Serial dilution MIC assay, Bacillus subtilis; details: DSM10, serial dilution 67-0.5 µg/mL, overnight incubation, n.i. = no inhibition, read-out: MIC
Protocol: as §1

[15] = tested on: Escherichia coli (DSM 1116); assay: Serial dilution MIC assay, Escherichia coli; details: serial dilution 67-0.5 µg/mL, overnight incubation, n.i. = no inhibition
Protocol: as §1

[16] = tested on: Actinobacter baumannii (DSM 30008); assay: Serial dilution MIC assay, Actinobacter baumannii; details: serial dilution 67-0.5 µg/mL, overnight incubation, n.i. = no inhibition
Protocol: as §1

[17] = tested on: Mycolicibacterium smegmatis (ATCC 700084); assay: Serial dilution MIC assay, Mycolicibacterium smegmatis; details: ATCC700084, serial dilution 67-0.5 µg/mL, overnight incubation, n.i. = no inhibition, read-out: MIC
Protocol: as §1

[18] = tested on: KB3.1 (ACC158) human endocervical adenocarcinoma; assay: MTT cytotoxicity test, KB3.1; details: KB3.1 human endocervical adenocarcinoma, five days incubation, n.c. = no cytotoxicity
Source text: as §2

[19] = tested on: Staphylococcus aureus (DSM 346); assay: Serial dilution MIC assay, Staphylococcus aureus; details: DSM346, serial dilution 67-0.5 µg/mL, overnight incubation, n.i. = no inhibition, read-out: MIC
Protocol: as §1

[20] = tested on: PC-3 (ACC465) human prostate adenocarcinoma; assay: MTT cytotoxicity test, PC-3; details: PC-3 human prostate adenocarcinoma, five days incubation
Source text: as §2

`C[C@@H]1[C@H](O)[C@@H](C)/C=C/C=C/CC/C=C/C=C/C=C/C=C/C(O[C@H]2O[C@H](C)[C@@H](O)[C@H](N)[C@@H]2O)CC2O[C@](O)(CC(O)C(O)CCC(O)CC(O)CC(O)CC(=O)O[C@H]1C)CC(O)C2C(=O)O` (some centres unmarked) [nystatin, reference compound] was tested, and the MIC ([1]; serial dilution 67-0.5 µg/mL) was 4.2 µg/mL (≈ 4.54 µM), the MIC ([2]; serial dilution 67-0.5 µg/mL) was 4.2 µg/mL (≈ 4.54 µM) and the MIC ([3]; serial dilution 67-0.5 µg/mL) was 8.3 µg/mL (≈ 8.96 µM). For the same compound, the MIC [4] was 8.3 µg/mL (≈ 8.96 µM) and the MIC ([5]; serial dilution 67-0.5 µg/mL) was 2.1 µg/mL (≈ 2.27 µM).

gentamycin [reference compound] was tested, and the MIC [6] was 0.4 ^d µg/mL.

`CC(C)C1=C2C3CC=C4C5OC6C(O)(COC7OC(C4C76O)C3(C)CCC2(C)CC1)O5` (centres unmarked) [Compound 1, dentifragilin A] was tested, and the IC50 ([7]; 120 h, read-out: IC50) was 5.8 µM, the IC50 ([8]; MCF7, 120 h) was 700 nM and the MIC ([1]; DSM2656, serial dilution 67-0.5 µg/mL, read-out: MIC) was 16.7 µg/mL (≈ 38.8 µM). For the same compound, the MIC ([2]; DSM70572, serial dilution 67-0.5 µg/mL, read-out: MIC) was 33.3 µg/mL (≈ 77.3 µM), the MIC ([3]; Hansenula anomala, DSM6766, serial dilution 67-0.5 µg/mL, read-out: MIC) was 66.6 µg/mL (≈ 155 µM) and the IC50 [9] was 0.7 to 15.8 µM. For the same compound, the IC50 ([10]; A-431, 120 h) was 15.8 µM, the IC50 ([11]; Homo sapiens, 120 h) was 2800 nM and the MIC [12] was “n.i”. The IC50 ([13]; Homo sapiens, SK-OV-3, 120 h) was 1900 nM, the MIC [14] was 1 µg/mL (≈ 2.32 µM) and the MIC [4] was “n.i”. The MIC [15] was “n.i”, the MIC [16] was “n.i” and the MIC [6] was “n.i”. It also gave an MIC [17] of 66.6 µg/mL (≈ 155 µM), an IC50 ([18]; KB 3-1, 120 h, read-out: IC50) of 2200 nM and an MIC [19] of 4.2 µg/mL (≈ 9.76 µM). The MIC ([5]; DSM10134, serial dilution 67-0.5 µg/mL, read-out: MIC) was 16.7 µg/mL (≈ 38.8 µM) and the IC50 ([20]; 120 h) was 2300 nM.

Work on `C/C(=C\c1csc(C)n1)[C@@H]1C[C@@H]2O[C@]2(C)CCC[C@H](C)[C@H](O)[C@@H](C)C(=O)C(C)(C)[C@@H](O)CC(=O)O1` [epothilon B, reference compound] yielded an IC50 ([7]; read-out: IC50) of 4.7e-05 µM, an IC50 [8] of 0.03 nM and an IC50 [10] of 6.7e-05 µM. The IC50 [11] was 0.095 nM, the IC50 [13] was 0.051 nM and the IC50 ([18]; read-out: IC50) was 0.033 nM. It also gave an IC50 [20] of 0.15 nM.

For `CC(C)C1=C2[C@H]3CC[C@H](CO)[C@@H]4[C@H](O[C@@H]5OC[C@@H](O)[C@H](O)[C@@]54O)[C@]3(C)CC[C@@]2(C)CC1` [Compound 6, dentifragilin F], the IC50 [7] was “not cytotoxic” and the IC50 [18] was “not cytotoxic”.

For `O=C(O)c1cn(C2CC2)c2cc(N3CCNCC3)c(F)cc2c1=O` [ciprofloxacin, reference compound], the MIC ([16]; read-out: MIC) was 0.3 µg/mL (≈ 0.905 µM).

Compound `CO[C@H]1O[C@H]2[C@H](O)CO[C@H]3O[C@H]4[C@@H](C1=CC[C@@H]1C5=C(C(C)C)CC[C@]5(C)CC[C@]14C)[C@]32O` [Compound 8, dentifragilin H] has an IC50 ([7]; 120 h, read-out: IC50) of 10 µM and an IC50 ([18]; KB 3-1, 120 h, read-out: IC50) of 2000 nM.
